The values that follow come from patent publication US11492335B2, “Aryl or heteroaryl triazolone derivatives or salts thereof, or pharmaceutical compositions comprising the same” (YUHAN CORPORATION, priority 2018, dated 2022).

Common to all, as to assay type: biochemical
The target of assay [1] is T1, recombinant human MAO-A (monoamine oxidase-A) (Homo sapiens, UniProt P21397).
T1 construct: purchased Sigma-Aldrich
T1 sequence (P21397 1-527): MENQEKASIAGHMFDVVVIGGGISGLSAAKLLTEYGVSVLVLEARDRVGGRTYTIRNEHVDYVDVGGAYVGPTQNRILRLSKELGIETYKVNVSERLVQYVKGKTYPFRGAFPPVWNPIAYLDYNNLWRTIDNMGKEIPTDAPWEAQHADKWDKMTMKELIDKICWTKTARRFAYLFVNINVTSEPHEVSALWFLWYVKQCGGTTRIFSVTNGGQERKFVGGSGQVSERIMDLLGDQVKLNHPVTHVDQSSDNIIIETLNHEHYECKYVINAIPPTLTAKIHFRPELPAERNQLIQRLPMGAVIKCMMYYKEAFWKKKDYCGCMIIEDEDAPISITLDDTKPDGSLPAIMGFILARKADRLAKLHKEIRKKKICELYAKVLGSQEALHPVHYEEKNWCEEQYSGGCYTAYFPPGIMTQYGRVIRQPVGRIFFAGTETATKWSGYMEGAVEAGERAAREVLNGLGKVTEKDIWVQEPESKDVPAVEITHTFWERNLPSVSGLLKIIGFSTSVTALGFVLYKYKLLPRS
Kind of assay: Activity on recombinant human MAO-A, Amplex Red method, 0.5 mM tyramine substrate. The note with it: 0.5 mM tyramine substrate, read-out: Inhibitory Activity (IC50, nM) MAO-A. The protocol: (§1) The compounds according to the present technology were evaluated in terms of activity on recombinant human VAP-1 (R&D systems) by measuring the level of hydrogen peroxide in horseradish peroxidase (HRP)-coupled reaction using Amplex Red Hydrogen Peroxide Assay Kit (Molecular Probes, Invitrogen, USA). The experiment was carried out at room temperature using benzylamine as a substrate. In the HRP-coupled reaction, hydrogen peroxide oxidation of 10-acetyl-3,7-dihydroxyphenoxazine (Amplex Red reagent) produces resorufin, which is a highly fluorescent compound. Briefly, the test compound was dissolved in dimethyl sulfoxide (DMSO) at a concentration of 20 mM. The dose-response assessment was made by 1:3 serial dilution in DMSO, thereby creating an 8 point curve. The concentration of the upper part was controlled according to the efficacy of the compounds, followed by dilution with a reaction buffer solution to obtain a final DMSO concentration less than 1%. To each well of a 96 black well plate, human VAP-1 purified in 50 mM sodium phosphate buffer solution (pH7.4) was added. The test compounds dissolved in DMSO were incubated with the human VAP-1 enzymes at 37° C. for 30 minutes. After 30-minute incubation, each well is added with a reaction mixture containing 200 uM Amplex Red reagent prepared from 50 mM sodium phosphate buffer solution (pH 7.4), 1 mM benzylamine, and 1 U/mL HRP. Fluorescence intensity was measured at several time points during 1-2 hours using a microplate reader (Flexstation3, Molecular Devices) under the wavelength condition exciting at 544 nm and reading the emission at 590 nm. The inhibitory effect of the compounds was measured as a decrease (%) in the signal rate as compared to the control group without any inhibitor (only diluted DMSO). Data was fixed to a logistic model with four variables and IC50 value was calculated using GraphPad Prism program.
(§2) In addition, the compounds according to the present technology were evaluated in terms of activity on a recombinant human MAO-A (monoamine oxidase-A, Sigma-Aldrich) and a recombinant human MAO-B (monoamine oxidase-B, Sigma-Aldrich) by using as substrates, 0.5 mM tyramine and 1 mM benzylamine, respectively, with a method similar to the activity evaluation method for recombinant human VAP-1. The compounds according to the present technology were also evaluated in terms of activity on a recombinant human DAO (diamine oxidase, R&D systems) by using as a substrate 1 mM putrescine with a method similar to the activity evaluation method for recombinant human VAP-1.

The target of assay [2] is T2, recombinant human DAO (diamine oxidase) (Homo sapiens, UniProt P19801).
T2 construct: purchased R&D systems
T2 sequence (P19801 20-751): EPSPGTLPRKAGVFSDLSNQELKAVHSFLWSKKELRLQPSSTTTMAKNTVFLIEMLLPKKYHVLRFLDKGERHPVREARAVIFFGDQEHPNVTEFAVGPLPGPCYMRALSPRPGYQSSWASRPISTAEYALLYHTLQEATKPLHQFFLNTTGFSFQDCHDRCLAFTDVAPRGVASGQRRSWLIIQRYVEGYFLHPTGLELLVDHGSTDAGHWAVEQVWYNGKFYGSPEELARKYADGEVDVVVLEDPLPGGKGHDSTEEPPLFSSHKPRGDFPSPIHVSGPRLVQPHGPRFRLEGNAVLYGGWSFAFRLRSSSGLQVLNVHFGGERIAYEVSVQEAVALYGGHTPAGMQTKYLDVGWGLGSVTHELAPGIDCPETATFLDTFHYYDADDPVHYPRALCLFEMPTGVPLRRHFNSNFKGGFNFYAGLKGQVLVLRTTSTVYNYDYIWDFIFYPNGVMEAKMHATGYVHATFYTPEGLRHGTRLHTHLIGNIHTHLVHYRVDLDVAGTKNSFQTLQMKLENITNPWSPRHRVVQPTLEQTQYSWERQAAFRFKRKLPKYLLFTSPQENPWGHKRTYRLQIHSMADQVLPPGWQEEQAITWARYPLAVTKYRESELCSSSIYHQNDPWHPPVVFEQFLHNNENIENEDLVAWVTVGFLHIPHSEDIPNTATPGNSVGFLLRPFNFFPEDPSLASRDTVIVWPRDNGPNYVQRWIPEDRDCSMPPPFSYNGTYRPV
As to the kind of experiment: Activity on recombinant human DAO, Amplex Red method, 1 mM putrescine substrate. To be noted: recombinant human DAO; for IC50: read-out: Inhibitory Activity (IC50, nM) DAO. As for the experimental part: as §1, §2

Assay [3] has as its target T3, recombinant human MAO-B (monoamine oxidase-B) (Homo sapiens, UniProt P27338).
T3 construct: purchased Sigma-Aldrich
T3 sequence (P27338 1-520): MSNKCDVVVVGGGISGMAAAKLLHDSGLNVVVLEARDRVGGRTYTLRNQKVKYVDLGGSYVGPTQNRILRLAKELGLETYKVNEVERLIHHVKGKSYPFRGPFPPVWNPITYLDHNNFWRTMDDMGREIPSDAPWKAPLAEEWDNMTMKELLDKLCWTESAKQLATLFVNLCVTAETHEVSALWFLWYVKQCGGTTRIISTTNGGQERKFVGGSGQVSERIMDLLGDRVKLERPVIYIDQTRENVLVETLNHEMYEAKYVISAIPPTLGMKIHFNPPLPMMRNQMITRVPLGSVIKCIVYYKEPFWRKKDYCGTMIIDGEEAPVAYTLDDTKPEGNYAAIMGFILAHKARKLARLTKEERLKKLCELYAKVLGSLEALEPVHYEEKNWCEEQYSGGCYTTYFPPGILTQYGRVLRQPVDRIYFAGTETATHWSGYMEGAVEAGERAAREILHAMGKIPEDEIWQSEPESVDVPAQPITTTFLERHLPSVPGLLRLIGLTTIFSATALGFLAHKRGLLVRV
As to the kind of experiment: Activity on recombinant human MAO-B, Amplex Red method, 1 mM benzylamine substrate. The note with it: for IC50: read-out: Inhibitory Activity (IC50, nM) MAO-B. As for the experimental part: as §1, §2

The next assay concerns the target T4, recombinant human VAP-1 (Homo sapiens, UniProt Q16853).
T4 construct: purchased R&D systems
T4 sequence (Q16853 1-763): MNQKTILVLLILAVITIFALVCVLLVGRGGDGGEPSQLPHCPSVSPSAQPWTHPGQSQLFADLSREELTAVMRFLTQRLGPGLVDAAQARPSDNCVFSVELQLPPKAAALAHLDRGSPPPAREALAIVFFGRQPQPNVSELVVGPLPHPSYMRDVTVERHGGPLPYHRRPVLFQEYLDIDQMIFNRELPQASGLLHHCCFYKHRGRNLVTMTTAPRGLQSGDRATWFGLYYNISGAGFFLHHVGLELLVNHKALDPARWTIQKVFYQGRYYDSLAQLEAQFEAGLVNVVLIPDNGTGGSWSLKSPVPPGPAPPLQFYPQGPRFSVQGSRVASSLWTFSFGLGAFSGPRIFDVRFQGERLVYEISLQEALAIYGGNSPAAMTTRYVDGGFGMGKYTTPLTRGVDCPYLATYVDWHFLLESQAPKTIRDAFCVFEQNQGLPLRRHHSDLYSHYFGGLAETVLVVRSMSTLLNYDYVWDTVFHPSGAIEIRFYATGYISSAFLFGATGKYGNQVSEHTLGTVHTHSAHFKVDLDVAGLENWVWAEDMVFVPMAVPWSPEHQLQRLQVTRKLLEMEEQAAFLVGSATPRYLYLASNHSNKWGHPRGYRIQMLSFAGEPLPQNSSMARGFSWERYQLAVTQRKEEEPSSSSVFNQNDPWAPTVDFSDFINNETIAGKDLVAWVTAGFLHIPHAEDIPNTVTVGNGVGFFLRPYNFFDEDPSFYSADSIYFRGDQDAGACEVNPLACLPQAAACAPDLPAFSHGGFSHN
As to the kind of experiment: Activity on recombinant human VAP-1, Amplex Red HRP-coupled hydrogen peroxide assay, benzylamine substrate. To be noted: recombinant human VAP-1, benzylamine substrate, read-out: Inhibitory Activity (IC50, nM) human VAP-1. The protocol:
as §1

The mark [4] stands for this setting: 1 mM putrescine, * = between 10 and 100 nM, ** = between 300 and 1000 nM.

Structures can show the parent of a compound that is named as a salt. Where two headings read alike, the source gives them in different places.

A word on the IC50: it is the midpoint of a concentration-inhibition curve. On to `CN1CCOc2cc(-c3cccc(-n4cnn(C/C(=C/F)CN)c4=O)n3)ccc21` [Example 202, 2-[(2E)-2-(aminomethyl)-3-fluoroprop-2-en-1-yl]-4-[6-(4-methyl-3,4-dihydro-2H-1,4-benzoxazin-7-yl)pyridin-2-yl]-2,4-dihydro-3H-1,2,4-triazol-3-one hydrochloride], for which the IC50 in assay [1] was above 100000 nM; in assay [2] (1 mM putrescine substrate) it was 240 nM; in assay [3] (1 mM benzylamine substrate), 1300 nM; at recombinant human VAP-1, 1 nM.
Regarding `CS(=O)(=O)c1ccc(-c2ccnc(-n3cnn(C/C(=C/F)CN)c3=O)c2)cc1` [Example 165, 2-[(2E)-2-(aminomethyl)-3-fluoroprop-2-en-1-yl]-4-{4-[4-(methylsulfonyl)phenyl]pyridin-2-yl}-2,4-dihydro-3H-1,2,4-triazol-3-one], the IC50 is above 100000 nM in assay [1], below 30 nM in assay [2] (1 mM putrescine substrate), above 10000 nM in assay [3] (1 mM benzylamine substrate) and 1.9 nM at recombinant human VAP-1.
For `NC/C(=C\F)Cn1ncn(-c2ncc(-c3ccc4c(c3)OCO4)cc2F)c1=O` [Example 162, 2-[(2E)-2-(aminomethyl)-3-fluoroprop-2-en-1-yl]-4-[5-(1,3-benzodioxol-5-yl)-3-fluoropyridin-2-yl]-2,4-dihydro-3H-1,2,4-triazol-3-one hydrochloride], in that order: 3140 nM, 1.6 nM, 17 nM and 1.6 nM.
For `NC/C(=C/F)Cn1ncn(-c2cc(F)c(Br)c(F)c2)c1=O` [Example 19, 2-[(2Z)-2-(aminomethyl)-3-fluoroprop-2-en-1-yl]-4-(4-bromo-3,5-difluorophenyl)-2,4-dihydro-3H-1,2,4-triazol-3-one], the values for the IC50 (in assay [2] (setting [4]); in assay [3] (1 mM benzylamine); at recombinant human VAP-1 (30 min preincubation at 37° C.)) were 13 nM, 4.4 nM and 3.3 nM, respectively.
On to `Cc1c(-c2ccc3c(c2)OCCO3)cccc1-n1cnn(C/C(=C/F)CN)c1=O` [Example 112, 2-[(2E)-2-(aminomethyl)-3-fluoroprop-2-en-1-yl]-4-[3-(2,3-dihydro-1,4-benzodioxin-6-yl)-2-methylphenyl]-2,4-dihydro-3H-1,2,4-triazol-3-one], for which the “Inhibitory Activity (IC50, nM) DAO” value in assay [2] (setting [4]) is recorded as “no inhibitory”. Moreover, in assay [3] (1 mM benzylamine), the “Inhibitory Activity (IC50, nM) MAO-B” value was “no inhibitory”. Further, the IC50 at recombinant human VAP-1 (30 min preincubation at 37° C.) stood at 2.5 nM.
For `Cc1c(-c2ccc3c(c2)OCO3)cccc1-n1cnn(C/C(=C/F)CN)c1=O` [Example 111, 2-[(2E)-2-(aminomethyl)-3-fluoroprop-2-en-1-yl]-4-[3-(1,3-benzodioxol-5-yl)-2-methylphenyl]-2,4-dihydro-3H-1,2,4-triazol-3-one], in assay [2] (setting [4]), the “Inhibitory Activity (IC50, nM) DAO” value is on record as “no inhibitory”. Besides, in assay [3] (1 mM benzylamine), the “Inhibitory Activity (IC50, nM) MAO-B” value is listed as “no inhibitory”. Also, the IC50 at recombinant human VAP-1 (30 min preincubation at 37° C.) was determined as 2.8 nM.
In the case of `Cc1cc(-c2ccc(-c3nnc[nH]3)cc2)cnc1-n1cnn(C/C(=C/F)CN)c1=O` [Example 136, 2-[(2E)-2-(aminomethyl)-3-fluoroprop-2-en-1-yl]-4-{3-methyl-5-[4-(4H-1,2,4-triazol-3-yl)phenyl]pyridin-2-yl}-2,4-dihydro-3H-1,2,4-triazol-3-one], the figures for the IC50 (in assay [2] (setting [4]); at recombinant human VAP-1 (30 min preincubation at 37° C.)) were 6100 nM and 0.62 nM, respectively.
`Cc1c(-c2ccc(N3CCOCC3)nc2)cccc1-n1cnn(C/C(=C/F)CN)c1=O` [Example 110, 2-[(2E)-2-(aminomethyl)-3-fluoroprop-2-en-1-yl]-4-{2-methyl-3-[6-(morpholin-4-yl)pyridin-3-yl]phenyl}-2,4-dihydro-3H-1,2,4-triazol-3-one]: the “Inhibitory Activity (IC50, nM) DAO” value in assay [2] (setting [4]) is recorded as “no inhibitory”. The “Inhibitory Activity (IC50, nM) MAO-B” value in assay [3] (1 mM benzylamine) is recorded as “no inhibitory”. Also, the IC50 on recombinant human VAP-1 (30 min preincubation at 37° C.) came out at 4.2 nM.
Take `Cc1cc(Br)ncc1-n1cnn(C/C(=C/F)CN)c1=O` [Example 28, 2-[(2E)-2-(aminomethyl)-3-fluoroprop-2-en-1-yl]-4-(6-bromo-4-methylpyridin-3-yl)-2,4-dihydro-3H-1,2,4-triazol-3-one hydrochloride]: the IC50 in assay [2] (setting [4]) was 1100 nM; at recombinant human VAP-1 (30 min preincubation at 37° C.) it was 45 nM.
